Test results from US10266577B2, “GLP-1 derivatives, and uses thereof” (Novo Nordisk A/S, priority 2013, dated 2019).
pEC50, pIC50: −log10 of the molar value. Numbered stars: 1 amine (or outer) side, 2 acyl side, 3 side chain; on linkers, the order of the positions; unused ones are H or OH. Square brackets hold non-standard residues; d marks the D form. Side chains are listed from the residue outwards. Peptide text beside a SMILES is read from it. * marks the point of attachment. Hexadecanoyl(16-SO3H) = O=C(CCCCCCCCCCCCCCCS(=O)(=O)O)*; C18 diacid = O=C(O)CCCCCCCCCCCCCCCCC(=O)*; γGlu = O=C(O)[C@H](CCC(=O)[*:2])N[*:1]; εLys = N[C@@H](CCCCN[*:1])C(=O)[*:2]; Cya = N[C@@H](CS(=O)(=O)O)C(=O)O; AEEA = NCCOCCOCC(=O)O; Aib = CC(C)(N)C(=O)O

Legend:
human GLP-1 receptor [1] = target: T1, human GLP-1 receptor (Homo sapiens, UniProt P43220); assay: GLP-1 receptor binding: competitive binding assay (125I-GLP-1, SPA) on isolated membranes at low and high HSA; conditions: displacement of 125I-GLP-1; for pIC50: high serum albumin (2.0% HSA final assay concentration)
T1 construct: expressed in transfected cells; host or cells: BHK cells (parent line BHKTS13), clone FCW467-12A; membrane preparation
Method: The purpose of this example is to test the receptor binding of the GLP-1 derivatives in vitro. The receptor binding is a measure of affinity of a derivative for the human GLP-1 receptor.
In this type of assay a labelled ligand (in this case ^125I-GLP-1) is bound to the receptor. Each derivative is added in a series of concentrations to isolated membranes containing the human GLP-1 receptor and displacement of the labelled ligand is monitored. The receptor binding is reported as the concentration at which half of the labelled ligand is displaced from the receptor, the IC50 value.
The following chemicals were used in the assay: Human serum albumin (HSA) (Sigma A1653), DMEM w/o phenol red (Gibco 11880-028), Pen/strep (Invitrogen 15140-122), G418 (Invitrogen 10131-027), 1 M Hepes (Gibco 15630), EDTA (Invitrogen 15575-038), PBS (Invitrogen 14190-094), fetal calf serum (Invitrogen 16140-071), EGTA, MgCl2 (Merck 1.05832.1000), Tween 20 (Amresco 0850C335), SPA particles (wheat germ agglutinin (WGA) SPA beads, Perkin Elmer RPNQ0001), [^125I]-GLP-1]-(7-36)NH2 (produced in-house), OptiPlate™-96 (Packard 6005290).
Buffer 1 consisted of 20 mM Na-HEPES plus 10 mM EDTA and pH was adjusted to 7.4. Buffer 2 consisted of 20 mM Na-HEPES plus 0.1 mM EDTA and pH was adjusted to 7.4. Assay buffer consisted of 50 mM HEPES supplemented with 5 mM EGTA, 5 mM MgCl2, 0.005% Tween 20 and pH was adjusted to 7.4. An 8% albumin stock consisted of HSA dissolved at 8% (w/v) in assay buffer. An 0.02% albumin stock consisted of HSA dissolved at 0.02% (w/v) in assay buffer.
The cells express the human GLP-1 receptor.
The cells were grown at 5% CO2 in DMEM, 10% fetal calf serum, 1% Pen/Strep (Penicillin/Streptomycin) and 1.0 mg/ml of the selection marker G418.
To make a membrane preparation the cells were grown to approximately 80% confluence. The cells were washed twice in phosphate-buffered saline and harvested. The cells were pelleted using a brief centrifugation and the cell pellet was kept on ice. The cell pellet was homogenised with ULTRA-THURRAX™ dispersing instrument for 20-30 seconds in a suitable amount of buffer 1 (e.g., 10 ml). The homogenate was centrifuged for 15 minutes. The pellet was re-suspended (homogenised) in 10 ml buffer 2 and centrifuged. This step was repeated once more. The resulting pellet was re-suspended in buffer 2 and the protein concentration was determined. The membranes were aliquoted and stored at minus 80° C.
For the receptor binding assay in the presence of low HSA (0.005%) 50 μl of the assay buffer was added to each well of an assay plate. Assay continued with step 3.
For the receptor binding assay in the presence of high HSA (2%) 50 μl of the 8% albumin stock was added to each well of an assay plate. Assay continued with step 3.
Cell membrane aliquots were thawed and diluted to their working concentration. Fifty μl were added to each well in the assay plate.
WGA SPA beads were suspended in assay buffer at 20 mg/ml. The suspension was diluted to 10 mg/ml in assay buffer just prior to addition to the assay plate. Fifty μl were added to each well in the assay plate.
The incubation was started by adding 25 μl of 480 pM solution of [^125I]-GLP-1]-(7-36)NH2 to each well of the assay plate. A 25 μl aliquot was reserved for measuring total counts/well.
The assay plate was incubated for 2 h at 30° C.
The assay plate was centrifuged for 10 min.
The assay plate was read in a Packard TopCount NXT instrument.
The data from the TopCount instrument were transferred to GraphPad Prism software. The software averaged the values for the replicates and performed a non-linear regression. IC50 values were calculated by the software and reported in nM.

in vivo = conditions: male, Göttingen, minipig, iv
Method: The purpose of this study is to determine the protraction in vivo of the GLP-1 derivatives after i.v. administration to minipigs, i.e. the prolongation of their time in the body and thereby their time of action. This is done in a pharmacokinetic (PK) study, where the terminal half-life of the derivative in question is determined. By terminal half-life is meant the time it takes to halve a certain plasma concentration in the terminal elimination phase.
Male Göttingen minipigs were obtained from Ellegaard Göttingen Minipigs (Dalmose, Denmark) approximately 7-14 months of age and weighing approximately 16-35 kg were used in the studies. The minipigs were housed either individually (pigs with permanent catheters) or in a group and fed restrictedly once or twice daily with SDS minipig diet (Special Diets Services, Essex, UK).
After at least 2 weeks of acclimatisation two permanent central venous catheters were implanted in vena cava caudalis or cranialis in each animal. The animals were allowed 1 week recovery after the surgery, and were then used for repeated pharmacokinetic studies with a suitable wash-out period between successive GLP-1 derivative dosings.
Blood samples (for example 0.8 ml) were collected in EDTA buffer (8 mM) and then centrifuged at 4° C. and 1942G for 10 minutes.
Plasma was pipetted into Micronic tubes on dry ice, and kept at −20° C. until analysed for plasma concentration of the respective GLP-1 compound using LOCI. Individual plasma concentration-time profiles were analyzed by a non-compartmental pharmacokinetic method in Phoenix v. 6.2 (Pharsight Inc., Mountain View, Calif., USA), or other relevant software for PK analysis, and the resulting terminal half-lives (harmonic mean) determined.

human GLP-1 receptor [2] = target: T1, human GLP-1 receptor; assay: In vitro potency: CRE luciferase reporter gene assay in BHK cells expressing the human GLP-1 receptor; format: cell-based; conditions: whole cell reporter gene assay, BHK clone FCW467-12A/KZ10-1; averages of at least two replicates
Method: The purpose of this example is to test the activity, or potency, of the GLP-1 derivatives in vitro. The in vitro potency is the measure of human GLP-1 receptor activation in a whole cell assay.
In vitro potency was determined by measuring the response of the human GLP-1 receptor in a reporter gene assay. The assay was performed in a stably transfected BHK cell line that expresses the human GLP-1 receptor and contains the DNA for the cAMP response element (CRE) coupled to a promoter and the gene for firefly luciferase (CRE luciferase). When the human GLP-1 receptor is activated it results in the production of cAMP, which in turn results in the luciferase protein being expressed. When assay incubation is completed the luciferase substrate (luciferin) is added and the enzyme converts luciferin to oxyluciferin to produce bioluminescence. The luminescence is measured as the readout for the assay.
The cells were cultured at 5% CO2 in Cell Culture Medium. They were aliquoted and stored in liquid nitrogen. Before each assay an aliquot is taken up and washed twice in PBS before being suspended at the desired concentration in the assay specific buffer. For 96-well plates the suspension was made to give a final concentration of 5×10^3 cells/well.
The following chemicals were used in the assay: Pluronic F-68 (10%) (Gibco 2404), human serum albumin (HSA) (Sigma A9511), ovalbumin (Sigma A5503), DMEM w/o phenol red (Gibco 11880-028), 1 M Hepes (Gibco 15630), Glutamax 100× (Gibco 35050) and steadylite plus (PerkinElmer 6016757).
Cell Culture Medium consisted of DMEM medium with 10% FBS (Fetal Bovine Serum; Invitrogen 16140-071), 1 mg/ml G418 (Invitrogen 15140-122), 240 nM MTX (methotrexate; Sigma M9929) and 1% pen/strep (penicillin/streptomycin; Invitrogen 15140-122).
Assay Medium consisted of DMEM w/o phenol red, 10 mM Hepes and 1× Glutamax. The Assay Buffer consisted of 2% ovalbumin and 0.2% Pluronic F-68 in Assay Medium.
1) Cell stocks were thawed in a 37° C. water bath.
2) Cells were washed three times in PBS.
3) The cells were counted and adjusted to 5×10^3 cells/50 μl (1×10^5 cells/ml) in Assay Medium. A 50 μl aliquot of cells was transferred to each well in the assay plate.
4) Stocks of the test compounds and reference compounds were diluted to a concentration of 0.2 pM in Assay Buffer. […] Compounds were tested at the following final concentrations: 1×10^−7 M, 1×10^−8 M; 1×10^−9 M, 1×10^−10 M, 1×10^−11 M, 1×10^−12 M, 1×10^−13 M, and 1×10^−14 M. 6) The assay plate was incubated for 3 h in a 5% CO2 incubator at 37° C. 7) The assay plate was removed from the incubator and allowed to stand at room temperature for 15 min. 8) A 100 μl aliquot of steadylite plus reagent was added to each well of the assay plate (reagent was light sensitive). 9) Each assay plate was covered with aluminum foil to protect it from light and shaken for 30 min at room temperature. 10) Each assay plate was read in a Packard TopCount NXT instrument. Calculations and Results
The data from the TopCount instrument were transferred to GraphPad Prism software. The software performs a non-linear regression (log(agonist) vs response).
A minimum of two replicates was measured for each sample. The reported values are averages of the replicates.

T1 sequence (P43220 24-463): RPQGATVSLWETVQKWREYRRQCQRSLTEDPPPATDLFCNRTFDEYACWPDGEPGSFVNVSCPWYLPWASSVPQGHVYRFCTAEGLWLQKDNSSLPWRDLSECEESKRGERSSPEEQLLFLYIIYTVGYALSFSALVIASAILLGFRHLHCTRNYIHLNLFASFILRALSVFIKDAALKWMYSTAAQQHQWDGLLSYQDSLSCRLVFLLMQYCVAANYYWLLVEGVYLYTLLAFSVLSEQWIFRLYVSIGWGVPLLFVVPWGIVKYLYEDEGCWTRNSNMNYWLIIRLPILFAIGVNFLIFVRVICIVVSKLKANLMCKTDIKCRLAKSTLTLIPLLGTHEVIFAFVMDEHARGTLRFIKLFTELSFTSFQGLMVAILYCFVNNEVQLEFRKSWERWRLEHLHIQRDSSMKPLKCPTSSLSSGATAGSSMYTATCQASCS

SMILES	pIC50 (human GLP-1 receptor [1])	half-life (in vivo) [h]	other results
CC[C@H](C)[C@H](NC(=O)[C@H](Cc1ccccc1)NC(=O)[C@H](CCC(=O)O)NC(=O)[C@H](CCCNC(=N)N)NC(=O)[C@H](C)NC(=O)[C@H](C)NC(=O)[C@H](CCC(N)=O)NC(=O)[C@H](CCCCNC(=O)COCCOCCNC(=O)COCCOCCNC(=O)COCCOCCNC(=O)COCCOCCNC(=O)COCCOCCNC(=O)[C@@H](N)CCCCNC(=O)[C@@H](N)CCCCNC(=O)CCCCCNC(=O)CCCCCCCCCCCCCCCS(=O)(=O)O)NC(=O)[C@H](CCC(=O)O)NC(=O)[C@H](CC(C)C)NC(=O)[C@H](Cc1ccc(O)cc1)NC(=O)[C@H](CCCCNC(=O)COCCOCCNC(=O)COCCOCCNC(=O)COCCOCCNC(=O)COCCOCCNC(=O)COCCOCCNC(=O)[C@@H](N)CCCCNC(=O)[C@@H](N)CCCCNC(=O)CCCCCNC(=O)CCCCCCCCCCCCCCCS(=O)(=O)O)NC(=O)[C@H](CO)NC(=O)[C@@H](NC(=O)[C@H](CC(=O)O)NC(=O)[C@H](CO)NC(=O)[C@@H](NC(=O)[C@H](Cc1ccccc1)NC(=O)[C@@H](NC(=O)CNC(=O)[C@H](CCC(=O)O)NC(=O)C(C)(C)NC(=O)[C@@H](N)Cc1c[nH]cn1)[C@@H](C)O)[C@@H](C)O)C(C)C)C(=O)N[C@@H](CCCCNC(=O)COCCOCCNC(=O)COCCOCCNC(=O)COCCOCCNC(=O)COCCOCCNC(=O)COCCOCCNC(=O)[C@@H](N)CCCCNC(=O)[C@@H](N)CCCCNC(=O)CCCCCNC(=O)CCCCCCCCCCCCCCCS(=O)(=O)O)C(=O)N[C@@H](Cc1c[nH]c2ccccc12)C(=O)N[C@@H](CC(C)C)C(=O)N[C@H](C(=O)N[C@@H](CCCNC(=N)N)C(=O)NCC(=O)N[C@@H](CCCNC(=N)N)C(=O)NCC(=O)O)C(C)C [Example 20]	7.00	–	–
CC[C@H](C)[C@H](NC(=O)[C@H](Cc1ccccc1)NC(=O)[C@H](CCC(=O)O)NC(=O)[C@H](CCCCNC(=O)[C@@H](N)CCCCNC(=O)COCCOCCNC(=O)COCCOCCNC(=O)CC[C@H](NC(=O)CCCCCCCCCCCCCCCCC(=O)O)C(=O)O)NC(=O)[C@H](C)NC(=O)[C@H](C)NC(=O)[C@H](CCC(N)=O)NC(=O)[C@H](CCC(=O)O)NC(=O)[C@H](CCC(=O)O)NC(=O)[C@H](CC(C)C)NC(=O)[C@H](Cc1ccc(O)cc1)NC(=O)[C@H](CO)NC(=O)[C@H](CO)NC(=O)[C@@H](NC(=O)[C@H](CC(=O)O)NC(=O)[C@H](CO)NC(=O)[C@@H](NC(=O)[C@H](Cc1ccccc1)NC(=O)[C@@H](NC(=O)CNC(=O)[C@H](CCC(=O)O)NC(=O)C(C)(C)NC(=O)[C@@H](N)Cc1c[nH]cn1)[C@@H](C)O)[C@@H](C)O)C(C)C)C(=O)N[C@@H](CCCCNC(=O)[C@@H](N)CCCCNC(=O)COCCOCCNC(=O)COCCOCCNC(=O)CC[C@H](NC(=O)CCCCCCCCCCCCCCCCC(=O)O)C(=O)O)C(=O)N[C@@H](Cc1c[nH]c2ccccc12)C(=O)N[C@@H](CC(C)C)C(=O)N[C@H](C(=O)N[C@@H](CCCNC(=N)N)C(=O)NCC(=O)N[C@@H](CCCNC(=N)N)C(=O)N[C@@H](CCCCNC(=O)[C@@H](N)CCCCNC(=O)COCCOCCNC(=O)COCCOCCNC(=O)CC[C@H](NC(=O)CCCCCCCCCCCCCCCCC(=O)O)C(=O)O)C(=O)O)C(C)C [Example 11] (H-H[Aib]EGTFTSDVSSYLEEQAAK([εLys-AEEA-AEEA-γGlu-C18 diacid])EFIK([εLys-AEEA-AEEA-γGlu-C18 diacid])WLVRGRK([εLys-AEEA-AEEA-γGlu-C18 diacid])-OH; N-terminus and C-terminus assumed)	< 6.00	–	–
CC[C@H](C)[C@H](NC(=O)[C@H](Cc1ccccc1)NC(=O)[C@H](CCC(=O)O)NC(=O)[C@H](CCCNC(=N)N)NC(=O)[C@H](C)NC(=O)[C@H](C)NC(=O)[C@H](CCC(N)=O)NC(=O)[C@H](CCCCNC(=O)COCCOCCNC(=O)COCCOCCNC(=O)[C@@H](N)CCCCNC(=O)CCCCCCCCCCCCCCCS(=O)(=O)O)NC(=O)[C@H](CCC(=O)O)NC(=O)[C@H](CC(C)C)NC(=O)[C@H](Cc1ccc(O)cc1)NC(=O)[C@H](CCCCNC(=O)COCCOCCNC(=O)COCCOCCNC(=O)[C@@H](N)CCCCNC(=O)CCCCCCCCCCCCCCCS(=O)(=O)O)NC(=O)[C@H](CO)NC(=O)[C@@H](NC(=O)[C@H](CC(=O)O)NC(=O)[C@H](CO)NC(=O)[C@@H](NC(=O)[C@H](Cc1ccccc1)NC(=O)[C@@H](NC(=O)CNC(=O)[C@H](CCC(=O)O)NC(=O)C(C)(C)NC(=O)[C@@H](N)Cc1c[nH]cn1)[C@@H](C)O)[C@@H](C)O)C(C)C)C(=O)N[C@@H](CCCCNC(=O)COCCOCCNC(=O)COCCOCCNC(=O)[C@@H](N)CCCCNC(=O)CCCCCCCCCCCCCCCS(=O)(=O)O)C(=O)N[C@@H](Cc1c[nH]c2ccccc12)C(=O)N[C@@H](CC(C)C)C(=O)N[C@H](C(=O)N[C@@H](CCCNC(=N)N)C(=O)NCC(=O)N[C@@H](CCCNC(=N)N)C(=O)NCC(=O)O)C(C)C [Example 13]	–	–	pEC50 (human GLP-1 receptor [2]): 10.59
CC[C@H](C)[C@H](NC(=O)[C@H](Cc1ccccc1)NC(=O)[C@H](CCC(=O)O)NC(=O)[C@H](CCCNC(=N)N)NC(=O)[C@H](C)NC(=O)[C@H](C)NC(=O)[C@H](CCC(N)=O)NC(=O)[C@H](CCCCNC(=O)COCCOCCNC(=O)COCCOCCNC(=O)[C@H](CS(=O)(=O)O)NC(=O)CCCCCCCCCCCCCCCS(=O)(=O)O)NC(=O)[C@H](CCC(=O)O)NC(=O)[C@H](CC(C)C)NC(=O)[C@H](Cc1ccc(O)cc1)NC(=O)[C@H](CCCCNC(=O)COCCOCCNC(=O)COCCOCCNC(=O)[C@H](CS(=O)(=O)O)NC(=O)CCCCCCCCCCCCCCCS(=O)(=O)O)NC(=O)[C@H](CO)NC(=O)[C@@H](NC(=O)[C@H](CC(=O)O)NC(=O)[C@H](CO)NC(=O)[C@@H](NC(=O)[C@H](Cc1ccccc1)NC(=O)[C@@H](NC(=O)CNC(=O)[C@H](CCC(=O)O)NC(=O)C(C)(C)NC(=O)[C@@H](N)Cc1c[nH]cn1)[C@@H](C)O)[C@@H](C)O)C(C)C)C(=O)N[C@@H](CCCCNC(=O)COCCOCCNC(=O)COCCOCCNC(=O)[C@H](CS(=O)(=O)O)NC(=O)CCCCCCCCCCCCCCCS(=O)(=O)O)C(=O)N[C@@H](Cc1c[nH]c2ccccc12)C(=O)N[C@@H](CC(C)C)C(=O)N[C@H](C(=O)N[C@@H](CCCNC(=N)N)C(=O)NCC(=O)N[C@@H](CCCNC(=N)N)C(=O)NCC(=O)O)C(C)C [Example 2] (H-H[Aib]EGTFTSDVSK([AEEA-AEEA-Cya-Hexadecanoyl(16-SO3H)])YLEK([AEEA-AEEA-Cya-Hexadecanoyl(16-SO3H)])QAAREFIK([AEEA-AEEA-Cya-Hexadecanoyl(16-SO3H)])WLVRGRG-OH; N-terminus and C-terminus assumed)	–	140	–

More lines, main results first:

pIC50 (human GLP-1 receptor [1])	half-life (in vivo) [h]	SMILES	other results
< 6.00	103	CC[C@H](C)[C@H](NC(=O)[C@H](Cc1ccccc1)NC(=O)[C@H](CCCCNC(=O)[C@@H](N)CCCCNC(=O)COCCOCCNC(=O)COCCOCCNC(=O)CC[C@H](NC(=O)CCCCCCCCCCCCCCCCC(=O)O)C(=O)O)NC(=O)[C@H](CCCNC(=N)N)NC(=O)[C@H](C)NC(=O)[C@H](C)NC(=O)[C@H](CCC(N)=O)NC(=O)[C@H](CCC(=O)O)NC(=O)[C@H](CCC(=O)O)NC(=O)[C@H](CC(C)C)NC(=O)[C@H](Cc1ccc(O)cc1)NC(=O)[C@H](CCCCNC(=O)[C@@H](N)CCCCNC(=O)COCCOCCNC(=O)COCCOCCNC(=O)CC[C@H](NC(=O)CCCCCCCCCCCCCCCCC(=O)O)C(=O)O)NC(=O)[C@H](CO)NC(=O)[C@@H](NC(=O)[C@H](CC(=O)O)NC(=O)[C@H](CO)NC(=O)[C@@H](NC(=O)[C@H](Cc1ccccc1)NC(=O)[C@@H](NC(=O)CNC(=O)[C@H](CCC(=O)O)NC(=O)C(C)(C)NC(=O)[C@@H](N)Cc1c[nH]cn1)[C@@H](C)O)[C@@H](C)O)C(C)C)C(=O)N[C@@H](C)C(=O)N[C@@H](Cc1c[nH]c2ccccc12)C(=O)N[C@@H](CC(C)C)C(=O)N[C@H](C(=O)N[C@@H](CCCNC(=N)N)C(=O)NCC(=O)N[C@@H](CCCNC(=N)N)C(=O)N[C@@H](CCCCNC(=O)[C@@H](N)CCCCNC(=O)COCCOCCNC(=O)COCCOCCNC(=O)CC[C@H](NC(=O)CCCCCCCCCCCCCCCCC(=O)O)C(=O)O)C(=O)O)C(C)C [Example 6] (H-H[Aib]EGTFTSDVSK([εLys-AEEA-AEEA-γGlu-C18 diacid])YLEEQAARK([εLys-AEEA-AEEA-γGlu-C18 diacid])FIAWLVRGRK([εLys-AEEA-AEEA-γGlu-C18 diacid])-OH; N-terminus and C-terminus assumed)	Low HSA IC50 (human GLP-1 receptor [1]; Low HSA IC50, low serum albumin (max. 0.001% final assay concentration)): 0.4 nM
< 6.00	–	CC[C@H](C)[C@H](NC(=O)[C@H](Cc1ccccc1)NC(=O)[C@H](CCCCNC(=O)COCCOCCNC(=O)COCCOCCNC(=O)CC[C@H](NC(=O)CCCCCCCCCCCCCCCCC(=O)O)C(=O)O)NC(=O)[C@H](CCCNC(=N)N)NC(=O)[C@H](C)NC(=O)[C@H](C)NC(=O)[C@H](CCC(N)=O)NC(=O)[C@H](CCC(=O)O)NC(=O)[C@H](CCC(=O)O)NC(=O)[C@H](CC(C)C)NC(=O)[C@H](Cc1ccc(O)cc1)NC(=O)[C@H](CCCCNC(=O)COCCOCCNC(=O)COCCOCCNC(=O)CC[C@H](NC(=O)CCCCCCCCCCCCCCCCC(=O)O)C(=O)O)NC(=O)[C@H](CO)NC(=O)[C@@H](NC(=O)[C@H](CC(=O)O)NC(=O)[C@H](CO)NC(=O)[C@@H](NC(=O)[C@H](Cc1ccccc1)NC(=O)[C@@H](NC(=O)CNC(=O)[C@H](CCC(=O)O)NC(=O)C(C)(C)NC(=O)[C@@H](N)Cc1c[nH]cn1)[C@@H](C)O)[C@@H](C)O)C(C)C)C(=O)N[C@@H](C)C(=O)N[C@@H](Cc1c[nH]c2ccccc12)C(=O)N[C@@H](CC(C)C)C(=O)N[C@H](C(=O)N[C@@H](CCCNC(=N)N)C(=O)NCC(=O)N[C@@H](CCCNC(=N)N)C(=O)N[C@@H](CCCCNC(=O)COCCOCCNC(=O)COCCOCCNC(=O)CC[C@H](NC(=O)CCCCCCCCCCCCCCCCC(=O)O)C(=O)O)C(=O)O)C(C)C [Example 5] (H-H[Aib]EGTFTSDVSK([AEEA-AEEA-γGlu-C18 diacid])YLEEQAARK([AEEA-AEEA-γGlu-C18 diacid])FIAWLVRGRK([AEEA-AEEA-γGlu-C18 diacid])-OH; N-terminus and C-terminus assumed)	–
